Values joined by “and” are separate entries in the source; they are usually repeats but may differ in a detail not shown here. Identical values can stand only once.
Experiments:
[1] = target: T1, 140 purified human kinases (Homo sapiens, UniProt O43781); test: Kinase inhibition screen, cell-free 33P ATP assay at 10 μM; format: biochemical
T1 sequence (O43781 1-588): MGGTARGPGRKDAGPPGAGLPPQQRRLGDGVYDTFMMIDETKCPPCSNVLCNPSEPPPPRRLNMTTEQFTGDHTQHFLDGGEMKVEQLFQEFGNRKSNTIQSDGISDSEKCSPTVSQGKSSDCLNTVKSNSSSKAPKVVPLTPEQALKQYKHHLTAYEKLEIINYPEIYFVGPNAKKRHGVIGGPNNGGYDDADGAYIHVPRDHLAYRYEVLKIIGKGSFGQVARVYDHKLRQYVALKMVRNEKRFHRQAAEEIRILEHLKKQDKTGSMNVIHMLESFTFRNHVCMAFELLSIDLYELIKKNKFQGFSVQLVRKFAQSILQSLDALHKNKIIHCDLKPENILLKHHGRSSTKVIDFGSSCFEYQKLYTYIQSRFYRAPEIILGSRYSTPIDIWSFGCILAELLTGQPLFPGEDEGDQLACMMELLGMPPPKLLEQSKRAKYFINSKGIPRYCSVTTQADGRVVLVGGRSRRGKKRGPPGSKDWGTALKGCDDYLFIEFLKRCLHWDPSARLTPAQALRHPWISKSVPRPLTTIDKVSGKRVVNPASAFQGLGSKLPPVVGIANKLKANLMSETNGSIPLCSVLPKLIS
Experimental: [L2Cu3]^6+ and [L2Zn3]^6+ were submitted to the MRC Protein Phosphorylation and Ubiquitination Unit International Centre for Kinase Profiling (University of Dundee) and tested in duplicate (at 10 μM) against a series of 140 purified human kinases in a cell-free kinase assay using ^33P ATP[55],[56]. The kinase gene IDs from the screen were then translated into common IDs (HGNC symbol) using biomaRt package[57],[58] in R[59] and R Studio[60] and used as input to the KinMap programme.

[2] = test system: ARPE-19; test: Quantification of cellular ATP levels (CellTiterGlo); format: cell-based, human; conditions: for % ATP Activity (Average): ARPE-19 cells, average of runs, relative to 0 µM = 100; for ATP levels relative to vehicle control: ARPE19, 100μM, 20h
Experimental: (§1) ARPE-19 and HCT116 p53^+/+ cells were seeded in 96-well opaque plates at a density of 7500 cells/well. 24 h after seeding, cells were treated for 20 h with a range of concentrations of [[…]]^6+, [L2Zn3]^6+, [[…]]^6+, or vehicle control (2-fold serial dilution from 100-3.125 μM) before determining total cellular ATP content by quantification of luminescence (CellTiterGlo® assay, Promega). ATP levels were normalised relative to levels in vehicle control-treated cells.

[3] = test system: HCT116 p53+/+; test: as above; format: cell-based, human; conditions: for ATP levels relative to vehicle control: 20h; for % ATP Activity (Average): HCT116 p53+/+ cells, average of runs, relative to 0 µM = 100
Experimental: as §1

[4] = test system: HCT116 p53-/-; test: Confocal imaging of autophagic cells (CYTO-ID); format: cell-based, human; conditions: 3.125 µM, 40 h
Experimental: Cells were seeded in Lumox chamber slides (8-well, Sarstedt) at a density of 1.25 × 10^4 cells/well (ARPE-19) or 5.625 × 10^4 cells/well (HCT116 p53^−/− and HCT116 p53^+/+). 24 h after seeding, cells were treated with 3.125 μM of [L2Cu3]^6+, [L2Zn3]^6+, [L2Mn3]^6+, or vehicle control for 40 h before removal and addition of CYTO-ID Green autophagic dye (1:500 dilution, Enzo Life Sciences) and Hoechst 3342 nuclear counter stain for 30 min at 37 °C. Media was then replaced before imaging using a Zeiss LSM880 confocal laser scanning microscope.

[5] = UV-Vis study of hydrolysis of 4-nitrophenyl phosphate; conditions: HEPES pH 7.4 / DMSO, blank 0.0129
Experimental: UV–Vis studies were carried out on a Cary 60 UV–Vis spectrophotometer with Thermo cycler attachment and the wavelength range of 800–250 nm was scanned every hour for 43 h whilst the solution was heated at a constant temperature of 37 °C. Progress of hydrolysation of 4-nitrophenyl phosphate to 4-nitrophenol was measured by monitoring the increase in absorption at the wavelength of 400 nm (typical for 4-nitrophenol). HEPES buffer was prepared at pH 7.4. Solutions were prepared by dissolving the ligand L (3.1 mg, 0.005 mmol) and the relevant metal salt (1.5 equivalents with respect to ligand) in DMSO (5 mL). 4-nitrophenyl phosphate (18.6 mg, 0.050 mmol) was dissolved in HEPES buffer (~10 mL, 60 mmol). These solutions were then combined and made up volumetrically to 50 mL with HEPES buffer. Where required Bu4NH2PO4 (0.5 equivalents with respect to ligand) was added to the HEPES buffer.
5. UV-Vis studies of the hydrolysis of disodium 4-nitrophenylphosphate.
UV-Vis studies were carried out on a Cary 60 UV-Vis spectrophotometer with Thermo cycler attachment and the wavelength range of 800 – 250 nm was scanned every hour for 43 hours whilst the solution was heated at a constant temperature of 37 °C. Progress of hydrolysation of 4-nitrophenyl phosphate to 4-nitrophenol was measured by monitoring the increase in absorption at the wavelength of 400 nm (typical for 4-nitrophenol). HEPES buffer was prepared at pH 7.4.
Solutions were prepared by dissolving the ligand L (3.1 mg, 0.005 mmol) and the relevant metal salt (1.5 equiv w.r.t. ligand) in DMSO (5 mL). 4 -nitrophenyl phosphate (18.6 mg, 0.050 mmol) was dissolved in HEPES buffer (~10 mL , 60 mmol) These solutions were then combined and made up volumetrically to 50 mL with HEPES buffer.
(1.5 equiv w.r.t. ligand) in DMSO (5 mL). Tetrabutylammonium phosphate (0.84 mg, 0.0025 mmol) was dissolved in HEPES buffer (~1 mL, 60 mmol) and these solutions were combined. […]

Structure (SMILES)	% Inhibition, Mean ([1]; DYRK3)	mean % activity ([1]; DYRK3)	% ATP Activity (Average) ([2]; 3.125 µM complex)	% ATP Activity (Average) ([2]; 6.25 µM complex)	% ATP Activity (Average) ([2]; 12.5 µM complex)	% ATP Activity (Average) ([2]; 25 µM complex)	% ATP Activity (Average) ([2]; 50 µM complex)	% ATP Activity (Average) ([2]; 100 µM complex)	% ATP Activity (Average) ([3]; 3.125 µM complex)	% ATP Activity (Average) ([3]; 6.25 µM complex)	% ATP Activity (Average) ([3]; 12.5 µM complex)	% ATP Activity (Average) ([3]; 25 µM complex)	% ATP Activity (Average) ([3]; 50 µM complex)	% ATP Activity (Average) ([3]; 100 µM complex)	induction of vacuoles / autophagy (CYTO-ID) [4]	Concentration of 4-nitrophenol after 24 hours at 37°C [5]	ATP levels relative to vehicle control [2]	also measured
[Cu+2].[Cu+2].[Cu+2].c1ccc(-c2csc(NCCN(CCNc3nc(-c4ccccn4)cs3)CCNc3nc(-c4ccccn4)cs3)n2)nc1.c1ccc(-c2csc(NCCN(CCNc3nc(-c4ccccn4)cs3)CCNc3nc(-c4ccccn4)cs3)n2)nc1 [[L2Cu3]6+]	42%	58%	91.48%	92.26%	92.93%	95.14%	85.50%	56.08%	75.66%	75.32%	74.21%	71.91%	61.46%	38.46%	no or little autophagy			% Inhibition Run 1 ([1]; DYRK3): 42.6%; % Inhibition Run 2 ([1]; DYRK3): 40.9%; % activity ([1]; DYRK3, Run 1): 57.4%; % activity ([1]; DYRK3, Run 2): 59.1%; ATP levels relative to vehicle control ([3]; HCT116, highest concentration of 100μM): < 50%; induction of vacuoles / autophagy (CYTO-ID) ([4]; listed as [L2Cu3]^6+): did not
[Mn+2].[Mn+2].[Mn+2].c1ccc(-c2csc(NCCN(CCNc3nc(-c4ccccn4)cs3)CCNc3nc(-c4ccccn4)cs3)n2)nc1.c1ccc(-c2csc(NCCN(CCNc3nc(-c4ccccn4)cs3)CCNc3nc(-c4ccccn4)cs3)n2)nc1 [[L2Mn3]6+]			82.98%	75.81%	71.57%	63.68%	53.48%	40.46%	52.15%	40.82%	38.17%	35.09%	31.21%	28.58%	most pronounced	0.1185 mM	~ 40%	ATP levels relative to vehicle control ([3]; HCT116 p53+/+, 6.25μM): < 50%; induction of vacuoles / autophagy (CYTO-ID) ([4]; listed as Mn^2+ complex): also induced autophagy
CC(=O)[O-].CC(=O)[O-].CC(=O)[O-].O=P([O-])([O-])[O-].[Zn+2].[Zn+2].[Zn+2].c1ccc(-c2csc(NCCN(CCNc3nc(-c4ccccn4)cs3)CCNc3nc(-c4ccccn4)cs3)n2)nc1.c1ccc(-c2csc(NCCN(CCNc3nc(-c4ccccn4)cs3)CCNc3nc(-c4ccccn4)cs3)n2)nc1 [[L2Zn3(PO4)]3+]																0.0164 mM		
CC(=O)[O-].CC(=O)[O-].CC(=O)[O-].CC(=O)[O-].CC(=O)[O-].CC(=O)[O-].[Zn+2].[Zn+2].[Zn+2].c1ccc(-c2csc(NCCN(CCNc3nc(-c4ccccn4)cs3)CCNc3nc(-c4ccccn4)cs3)n2)nc1.c1ccc(-c2csc(NCCN(CCNc3nc(-c4ccccn4)cs3)CCNc3nc(-c4ccccn4)cs3)n2)nc1 [[L2Zn3]6+]	30%	70%	91.98%	88.71%	84.92%	79.86%	79.43%	73.40%	71.75%	63.36%	54.43%	46.16%	35.67%	26.26%	induced the appearance of vacuoles	0.0361 mM	> 70%	% Inhibition, Run 1 / Run 2 ([1]; DYRK3): 32% and 28%; % activity ([1]; DYRK3, duplicate runs): 68% and 72%; ATP levels relative to vehicle control ([3]; HCT116 p53+/+, concentrations of ≥25μM): < 50%
